US6989383B1, “Method of treating cancer” (Sloan-Kettering Institute For Cancer Research, priority 1998, dated 2006)

How the values were obtained:
[1] = TFA salt
MCF-7 cells [2] = assay: In vitro cell cycle assay (DNA content by flow cytometry); format: cell-based, human; conditions: 24 hour treatment with various concentrations of paclitaxel in presence or absence of 1 μM Compound A
Experimental: FIGS. 4 and 4A-4L: Effect of a Farnesyl-protein Transferase Inhibitor in combination with paclitaxel on the cell cycle of MCF-7 Cells: MCF-7 cells were preincubated for one day, followed by a 24 hour treatment with various concentrations of paclitaxel in the presence or absence of 1 μM Compound A. The DNA contents of the cells were then assessed according to the protocol described in “In vitro cell cycle assay.” The cell population having various DNA quantities was then determined and analyzed graphically. […] FIGS. 4A-4L show the individual histograms in greater detail. FIGS. 4A-4F show the histograms of the treatment in the absence of Compound A and with increasing concentrations of paclitaxel (the left column of FIG. 4). FIGS. 4G-4L show the histograms of the treatment in the presence of 1 μM of Compound A and with increasing concentrations of paclitaxel (the right column of FIG. 4).
Cancer cells (MCF-7, MDA468 or DU-145) are seeded in a 10 cm dish at 1,000,000 cells per dish. After one day in growth media, the cells are exposed to various concentrations of a antineoplastic agent along with vehicle (PBS) or 1 μM FTI in the vehicle. After 24 hours of exposure to the combination or antineoplastic agent, the cells are trypsinized and stained with ethidium bromide. The stained nucleii are analyzed by flow cytometry for evaluation of the DNA content.

MCF-7 cells [3] = assay: Mitotic index by bis-benzimide staining and fluorescence microscopy; format: cell-based, human; conditions: paclitaxel/Compound A treatments, manual counting of 1000 cells per group
Experimental: FIG. 5: Specific Effect of a Farnesyl-protein Transferase Inhibitor in combination with pactitaxel on the cell cycle of MCF-7 Cells: The cells which contained the doubled DNA content from the assay described above for FIGS. 4 and 4A-4L were analyzed to determine which particular cell cycle phase was affected by the addition of Compound A to the paclitaxel treatment. Thus, aliquots of the cell populations for the various paclitaxel/Compound A treatments were. fixed in 3% paraformaldehyde for 10 minutes, washed in PBS and stained in 24 μg/ml bis-benzimide in PBS. Mitotic cells were distinguished from interphase cells under fluorescence microscopy by characteristic chromatin condensation and mitotic indices were obtained by manual counting of 1000 cells in each experimental treatment group.

SMILES | stability in solution exposed to air [1] | effect on paclitaxel-induced G2/M phase arrest (MCF-7 cells [2]) | cell cycle phase affected by addition of Compound A to paclitaxel treatment (mitotic indices) (MCF-7 cells [3])
CC[C@H](C)[C@@H](CO[C@@H](Cc1ccccc1)C(=O)NC1CCOC1=O)NC[C@@H](N)CS (stereo partly drawn) [Compound 5-1, 2(S)-[2(S)-[2(R)-Amino-3-mercapto]-propylamino-3(S)-methyl]pentyloxy-3-phenylpropionyl-homoserine lactone] | prone to disulphide formation if left in solution and exposed to air |  | 
CCC(C)[C@@H](CO[C@@H](Cc1ccccc1)C(=O)N[C@@H](CCS(C)(=O)=O)C(=O)OC(C)C)NC[C@@H](N)CS (stereo partly drawn) [Compound A, 2(S)-[2(S)-[2(R)-Amino-3-mercapto]-propylamino-3(S)-methyl)-pentyloxy-3-phenylpropionyl-methionine sulfone isopropyl ester] |  | increases the molar potency with which paclitaxel causes G2/M phase arrest | enhancement in blockage at the G2/M phase of the cell cycle is largely due to an effect on the M-phase
